Source: PubChem BioAssay (NCI)
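How tested: cells in 96-well plates exposed to compound for 48 hours at five concentrations. TGI: concentration producing complete growth inhibition.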

Columns and labels:
Assay in all cases: DTP human tumour cell line panel, 48 h
[1] = test system: 786-0 renal
[2] = test system: A498 renal
[3] = test system: A549 NSCLC
[4] = test system: ACHN renal
[5] = test system: CAKI-1 renal
[6] = test system: CCRF-CEM leukemia
[7] = test system: COLO 205 colon
[8] = test system: DLD-1 colon
[9] = test system: DMS 114 small cell lung
[10] = test system: DMS 273 small cell lung
[11] = test system: EKVX NSCLC
[12] = test system: HCC-2998 colon
[13] = test system: HCT-116 colon
[14] = test system: HCT-15 colon
[15] = test system: HOP-18 NSCLC
[16] = test system: HOP-62 NSCLC
[17] = test system: HOP-92 NSCLC
[18] = test system: HT29 colon
[19] = test system: IGROV1 ovarian
[20] = test system: K-562 leukemia
[21] = test system: KM12 colon
[22] = test system: KM20L2 colon
[23] = test system: LOX IMVI melanoma
[24] = test system: LXFL 529 NSCLC
[25] = test system: M14 melanoma
[26] = test system: M19-MEL melanoma
[27] = test system: MALME-3M melanoma
[28] = test system: MOLT-4 leukemia
[29] = test system: NCI-H226 lung
[30] = test system: NCI-H23 lung
[31] = test system: NCI-H460 lung
[32] = test system: NCI-H522 lung
[33] = test system: OVCAR-3 ovarian
[34] = test system: OVCAR-4 ovarian
[35] = test system: OVCAR-5 ovarian
[36] = test system: OVCAR-8 ovarian
[37] = test system: RPMI-8226 leukemia
[38] = test system: RXF 393 renal
[39] = test system: SF-268 CNS
[40] = test system: SF-295 CNS
[41] = test system: SF-539 CNS
[42] = test system: SK-MEL-2 melanoma
[43] = test system: SK-MEL-28 melanoma
[44] = test system: SK-MEL-5 melanoma
[45] = test system: SK-OV-3 ovarian
[46] = test system: SN12C renal
[47] = test system: SNB-19 CNS
[48] = test system: SNB-75 CNS
[49] = test system: SNB-78 CNS
[50] = test system: SW-620 colon
[51] = test system: TK-10 renal
[52] = test system: U251 CNS
[53] = test system: UACC-257 melanoma
[54] = test system: UACC-62 melanoma
[55] = test system: UO-31 renal
[56] = test system: XF 498 CNS
[57] = test system: HL-60(TB) leukemia
[58] = test system: RXF-631 renal
[59] = test system: SR leukemia

Measured: TGI

CCOC(=O)/C=C(/CN1C(=O)c2ccccc2C1=O)c1ccccc1
not listed: [57] | [58] | [59]
> 100 µM: all other assays above

c1cc2c(cnc3cscc32)s1
not listed: [7] | [11] | [15] | [19] | [22] | [24] | [45] | [54]
> 100 µM: all other assays above
